# Measured values from PMC11032326, “A practical synthesis of nitrone-derived C5a-functionalized isofagomines as protein stabilizers to treat Gaucher disease” (Communications Chemistry, 2024).
# B1: rh-GCase: recombinant human GCase used for enzyme replacement therapy (protein, UniProt P04062 40-536, looked up)
# Lysosomal acid …: ARPCIPKSFGYSSVVCVCNATYCDSFDPPTFPALGTFSRYESTRSGRRMELSMGPIQANHTGTGLLLTLQPEQKFQKVKGFGGAMTDAAALNILALSPPAQNLLLKSYFSEEGIGYNIIRVPMASCDFSIRTYTYADTPDDFQLHNFSLPEEDTKLKIPLIHRALQLAQRPVSLLASPWTSPTWLKTNGAVNGKGSLKGQPGDIYHQTWARYFVKFLDAYAEHKLQFWAVTAENEPSAGLLSGYPFQCLGFTPEHQRDFIARDLGPTLANSTHHNVRLLMLDDQRLLLPHWAKVVLTDPEAAKYVHGIAVHWYLDFLAPAKATLGETHRLFPNTMLFASEACVGSKFWEQSVRLGSWDRGMQYSHSIITNLLYHVVGWTDWNLALNPEGGPNWVRNFVDSPIIVDITKDTFYKQPMFYHLGHFSKFIPEGSQRVGLVASQKNDLDAVALMHPDGSAVVVVLNRSSKDVPLTIKDPAVGFLETISPGYSIHTYLWRRQ
# B2: Mono-PEG5k (100 eq): rh-GCase modified by MeO-PEG-NHS (Mw 5000 Da), 100 eq of reagent (conjugate, UniProt P04062 40-536, looked up)
# Lysosomal acid …: ARPCIPKSFGYSSVVCVCNATYCDSFDPPTFPALGTFSRYESTRSGRRMELSMGPIQANHTGTGLLLTLQPEQKFQKVKGFGGAMTDAAALNILALSPPAQNLLLKSYFSEEGIGYNIIRVPMASCDFSIRTYTYADTPDDFQLHNFSLPEEDTKLKIPLIHRALQLAQRPVSLLASPWTSPTWLKTNGAVNGKGSLKGQPGDIYHQTWARYFVKFLDAYAEHKLQFWAVTAENEPSAGLLSGYPFQCLGFTPEHQRDFIARDLGPTLANSTHHNVRLLMLDDQRLLLPHWAKVVLTDPEAAKYVHGIAVHWYLDFLAPAKATLGETHRLFPNTMLFASEACVGSKFWEQSVRLGSWDRGMQYSHSIITNLLYHVVGWTDWNLALNPEGGPNWVRNFVDSPIIVDITKDTFYKQPMFYHLGHFSKFIPEGSQRVGLVASQKNDLDAVALMHPDGSAVVVVLNRSSKDVPLTIKDPAVGFLETISPGYSIHTYLWRRQ
# modifications: PEG 5 kDa, 100 eq
# notes: rh-GCase modified by MeO-PEG-NHS (Mw 5000 Da), 100 eq of reagent
# B3: Mono-PEG5k (50 eq): rh-GCase modified by MeO-PEG-NHS (Mw 5000 Da), 50 eq of reagent (conjugate, UniProt P04062 40-536, looked up)
# Lysosomal acid …: ARPCIPKSFGYSSVVCVCNATYCDSFDPPTFPALGTFSRYESTRSGRRMELSMGPIQANHTGTGLLLTLQPEQKFQKVKGFGGAMTDAAALNILALSPPAQNLLLKSYFSEEGIGYNIIRVPMASCDFSIRTYTYADTPDDFQLHNFSLPEEDTKLKIPLIHRALQLAQRPVSLLASPWTSPTWLKTNGAVNGKGSLKGQPGDIYHQTWARYFVKFLDAYAEHKLQFWAVTAENEPSAGLLSGYPFQCLGFTPEHQRDFIARDLGPTLANSTHHNVRLLMLDDQRLLLPHWAKVVLTDPEAAKYVHGIAVHWYLDFLAPAKATLGETHRLFPNTMLFASEACVGSKFWEQSVRLGSWDRGMQYSHSIITNLLYHVVGWTDWNLALNPEGGPNWVRNFVDSPIIVDITKDTFYKQPMFYHLGHFSKFIPEGSQRVGLVASQKNDLDAVALMHPDGSAVVVVLNRSSKDVPLTIKDPAVGFLETISPGYSIHTYLWRRQ
# modifications: PEG 5 kDa, 50 eq
# notes: rh-GCase modified by MeO-PEG-NHS (Mw 5000 Da), 50 eq of reagent
# Columns and labels:
# rh-GCase [1] = target: T1, rh-GCase (Homo sapiens, UniProt P04062); assay: Thermal stability shift assay (fluorescence-based thermal denaturation); format: binding; settings: compared to Tm of rh-GCase without small molecule; for ΔTm at 100 µM: pH 7, 100 µM, read-out: In-vitro rh-GCase stabilization ΔTm; for In-vitro rh-GCase stabilization ΔTm: 100 µM, pH 7.0
# T1 sequence (P04062 40-536): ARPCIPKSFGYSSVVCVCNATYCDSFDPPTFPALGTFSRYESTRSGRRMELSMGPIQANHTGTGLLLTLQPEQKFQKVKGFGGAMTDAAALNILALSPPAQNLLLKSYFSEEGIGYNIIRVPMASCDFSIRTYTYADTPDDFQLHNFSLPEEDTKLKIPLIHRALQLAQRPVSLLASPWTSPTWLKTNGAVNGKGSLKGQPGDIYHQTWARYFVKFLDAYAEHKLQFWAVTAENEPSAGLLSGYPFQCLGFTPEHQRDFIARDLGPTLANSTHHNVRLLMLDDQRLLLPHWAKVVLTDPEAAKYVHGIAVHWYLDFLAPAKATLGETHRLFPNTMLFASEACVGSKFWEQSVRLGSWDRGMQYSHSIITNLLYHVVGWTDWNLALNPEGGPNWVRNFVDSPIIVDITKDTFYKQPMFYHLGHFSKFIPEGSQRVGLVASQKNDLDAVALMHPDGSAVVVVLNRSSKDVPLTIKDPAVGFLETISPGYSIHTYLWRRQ
# Procedure: The stability of rh-GCase was assessed using a modified fluorescence thermal stability assay on a Rotor-Gene system in a neutral pH buffer (phosphate buffer, pH 7.0). […] A thermal gradient was applied to the plate at a rate of 1 °C/minute, during which time the fluorescence of SYPRO Orange was continuously monitored. The fluorescence intensity at each temperature was normalized to the maximum fluorescence after complete thermal denaturation.
# rh-GCase [2] = target: T1, rh-GCase; assay: rh-GCase inhibition study (in-situ screening and IC50 of resynthesized compounds); format: biochemical; settings: for IC50: resynthesized compounds, read-out: IC50 against rh-GCase
# [3] = system: β-glucosidase activity in p.Asn370Ser/p.Leu29Alafs*18 Gaucher fibroblasts (GM00372); assay: Intact cell β-glucosidase activity study (chaperone activity) in Gaucher fibroblasts; format: cell-based, human; settings: compared to untreated cells (=1)
# Procedure: (§1) GM00372 cells were seeded into 96-well culture plates. […] The final concentration of DMSO was <0.5% which had no cytotoxicity or glucosidase inhibition. The cells were incubated for 5 days and the medium for DMSO-treated cells or compound-treated cells was renewed every 3 days. The enzyme activity assay was performed after removing the medium supplemented with compounds. Compounds were evaluated at all concentrations in triplicate. The monolayers were washed with Dulbecco’s PBS solution (Gibco pH 7.4). PBS (16 μL) and acetate buffer (0.2 M, 16 μL, pH 4.0) were added to each well. The reaction was started by the addition of 4-methylumbelliferyl β-D-glucoside (4 mM, 25 μL, Sigma) to each well, followed by incubation at 37 °C for 2 h. The reaction was stopped by lysing the cells with glycine buffer (0.2 M, 200 μL, pH 10.8). The fluorescence was also measured by the release of 4-methylumbelliferone with an excitation wavelength of 355 nm and an emission wavelength of 460 nm (SpectraMax M5, Molecular Devices). The fluorescence of untreated cells was compared with those treated with compounds. Among the resynthesized compounds, compound 16 was further subjected to the same experiments described above thoroughly at the concentration of 0–500 nM. Likewise, 4-methylumbelliferyl α-D-glucoside (4 mM, 25 μL, Sigma) was used to evaluate the cellular α-glucosidase activity in GM00372 cells treated with or without compound 16 (0–500 nM).
# [4] = system: p.Leu444Pro Gaucher fibroblasts (GM00877); assay: rh-GCase activity in Gaucher patient fibroblasts (co-administration), GM00877; format: cell-based, human; settings: rh-GCase 0.17 μM, 16 at 1 μM, 24 h
# Procedure: (§2) Gaucher patient fibroblasts (GM00372 and GM00877) (2 × 10^4 cells) were seeded in 48-well culture plates and incubated overnight. […] After 24 h, the medium was refreshed without rh-GCase and SMPSs, then the cells were incubated for another 24 h. Cells were harvested by trypsinization and the cell pellets were washed twice with PBS and lysed with lysis buffer containing 0.1% Triton X-100, 50 mM Tris-HCl, and 150 mM NaCl. GCase activity assay was performed by mixing lysate (10 μl) and substrate (90 μL of 4 mM 4-methylumbelliferyl β-D-glucopyranoside) in 0.1 M NaOAc and incubating at 37 °C for 1 h. Reactions were terminated by adding 0.2 N glycine-NaOH, pH 10.7. The fluorescence was detected at excitation/emission wavelengths 355/460 nm.
# [5] = system: Gaucher p.Asn370Ser fibroblasts (GM00372); assay: rh-GCase activity in Gaucher patient fibroblasts (co-administration), GM00372; format: cell-based, human; settings: rh-GCase 0.17 μM, 16 at 1 μM, 24 h
# Procedure: as §2
# [6] = system: cellular α-glucosidase activity in GM00372 cells; assay: Intact cell α-glucosidase activity study in Gaucher fibroblasts; format: cell-based, human; settings: 0–500 nM
# Procedure: as §1, with “Likewise, 4-methylumbelliferyl α-D-glucoside (4 mM, 25 μL, Sigma) was used to evaluate the cellular α-glucosidase activity in GM00372 cells treated with or without compound 16 (0–500 nM).” left out
# [7] = Fluorescence-based thermal shift assay of pegylated rh-GCases; format: physicochemical; settings: rh-GCase modified by MeO-PEG-NHS (Mw 5000 Da), molar ratio reagent to enzyme
# From the text: Supplementary Figure 1. Characterization of rh-GCase modified by MeO-PEG-NHS (Mw 5000 Da) with different molar ratios of reagent to the enzyme. (A) SDS-PAGE analysis of the pegylated rh-GCases indicated the acceptable effectiveness of the modification reaction, but reacting rh-GCase with longer MeO-PEG-NHS reagents resulted the incomplete pegylation (data not shown). (B) The […]
# (also on this page, place not known: rh -GCase MeO -PEG-NHS rh -GCase MeO -PEG-NHS 40 50 60 70 0 20 40 60 80 100 Mono-PEG5k (50 eq) Mono-PEG5k (100 eq) Temperature (oC) Unfolded protein (%)) […]
molecule,measurement,setting,value
C/C(=C\c1ccccc1)C(=O)NC[C@@H]1NC[C@@H](O)[C@H](O)[C@H]1CO [Compound 15],ΔTm at 100 µM,rh-GCase [1],11.3 °C
same,IC50,rh-GCase [2],30 ± 7.8 nM
same,β-glucosidase activity enhancement in p.Asn370Ser cells,[3]; 100 nM,1.8 fold
O=C(/C=C/c1cccc(Br)c1)NC[C@@H]1NC[C@@H](O)[C@H](O)[C@H]1CO [Compound 16],activity enhancement on co-administration with rh-GCase compared to rh-GCase alone,[4],9.1 fold
same,In-vitro rh-GCase stabilization ΔTm,rh-GCase [1],14.2 °C
same,ΔTm at 100 µM,rh-GCase [1],13.2 °C
same,activity enhancement on co-administration with rh-GCase compared to rh-GCase alone,[5],13 fold
same,IC50,rh-GCase [2],4 ± 0.7 nM
same,β-glucosidase activity enhancement in p.Asn370Ser cells,[3]; 10 nM,2.5 fold
same,β-glucosidase activity enhancement in p.Asn370Ser cells,[3]; 25 nM,up to 2.7 fold
same,influence on cellular α-glucosidase activity,[6],without impairing cellular α-glucosidase activity
O=C(Cc1ccc(Br)cc1)NC[C@@H]1NC[C@@H](O)[C@H](O)[C@H]1CO [Compound 17],In-vitro rh-GCase stabilization ΔTm,rh-GCase [1],13.2 °C
same,ΔTm at 100 µM,rh-GCase [1],14.2 °C
same,IC50,rh-GCase [2],5.1 ± 1.1 nM
same,β-glucosidase activity enhancement in p.Asn370Ser cells,[3]; 100 nM,1.7 fold
Cc1ccc(C(=O)NC[C@H]2NC[C@@H](O)[C@H](O)[C@H]2CO)c([N+](=O)[O-])c1 [Compound 18],IC50,rh-GCase [2],191 ± 43 nM
COc1ccc(Br)cc1/C=C/C(=O)NC[C@H]1NC[C@@H](O)[C@H](O)[C@H]1CO [Compound 19],IC50,rh-GCase [2],7.7 ± 1.5 nM
COc1ccc(C(=O)NC[C@H]2NC[C@@H](O)[C@H](O)[C@H]2CO)c(OC)c1 [Compound 20],IC50,rh-GCase [2],45.6 ± 13.7 nM
O=C(NC[C@H]1NC[C@@H](O)[C@H](O)[C@H]1CO)c1cccc2c1C(=O)c1ccccc1-2 [Compound 21],IC50,rh-GCase [2],25.9 ± 11.1 nM
O=C(Cc1ccc(Br)cc1)NC[C@H]1NC[C@@H](O)[C@H](O)[C@H]1CO [Compound 22],IC50,rh-GCase [2],250 ± 49 nM
O=C(NC[C@@H]1NC[C@@H](O)[C@H](O)[C@H]1CO)c1ccc2ccccc2c1 [Compound 23],IC50,rh-GCase [2],63.6 ± 9.5 nM
Cc1ccc(C(=O)NC[C@@H]2NC[C@@H](O)[C@H](O)[C@H]2CO)c([N+](=O)[O-])c1 [Compound 24],IC50,rh-GCase [2],11 ± 0.7 nM
COc1ccc(Br)cc1/C=C/C(=O)NC[C@@H]1NC[C@@H](O)[C@H](O)[C@H]1CO [Compound 25],IC50,rh-GCase [2],26.4 ± 8 nM
COc1ccc(C(=O)NC[C@@H]2NC[C@@H](O)[C@H](O)[C@H]2CO)c(OC)c1 [Compound 26],IC50,rh-GCase [2],200 ± 32 nM
O=C(NC[C@@H]1NC[C@@H](O)[C@H](O)[C@H]1CO)c1cccc2c1C(=O)c1ccccc1-2 [Compound 27],IC50,rh-GCase [2],68.3 ± 22 nM
"OC[C@H]1CNC[C@@H](O)[C@@H]1O [IFG, isofagomine]",activity enhancement on co-administration with rh-GCase compared to rh-GCase alone,[4],6 fold
same,ΔTm at 100 µM,rh-GCase [1],9.6 °C
same,activity enhancement on co-administration with rh-GCase compared to rh-GCase alone,[5],7 fold
same,β-glucosidase activity enhancement in p.Asn370Ser cells,[3]; 1000 nM,1.7 fold
O=C(NCC1NCC(O)C(O)C1CO)c1ccc2ccccc2c1 (stereo not shown) [S1],IC50,rh-GCase [2],3.7 ± 0.4 nM
same,fold greater inhibitory potency than IFG,rh-GCase [2]; rh-GCase IC50 compared with IFG,50 fold
B1,Tm,[7],49.1 ± 0.1 oC
B2,Tm,[7],50.3 ± 0.4 oC
B3,Tm,[7],51.7 ± 0.3 oC
